Literature values, collected in US20060115514A1, “Chelating and binding chemicals to a medical implant, medical device formed, and therapeutic applications” (priority 2004, published 2006).

Experiments:
[1] = test system: restenosis; details: oral administration
[2] = test system: neointimal formation after balloon injury; details: after balloon injury in rats

For `CO[C@H]1C[C@@H]2CC[C@@H](C)[C@@](O)(O2)C(=O)C(=O)N2CCCC[C@H]2C(=O)O[C@H]([C@H](C)C[C@@H]2CC[C@@H](O)[C@H](OC)C2)CC(=O)[C@H](C)/C=C(\C)[C@@H](O)[C@@H](OC)C(=O)[C@H](C)C[C@H](C)/C=C/C=C/C=C/1C` [sirolimus], the “incidence of adverse events” value [1] is given as “higher incidence of adverse events”.

In the case of `N=C(N)c1ccc2cc(OC(=O)c3ccc(N=C(N)N)cc3)ccc2c1` [FUT-175], the neointimal formation [2] is listed as “inhibits”.
